Reference: patent US5212310A (priority 1991, dated 1993)

Legend:
[1] = test system: clonazepam-sensitive benzodiazepine binding site; details: cited from earlier work
GABAa receptor = GABAa receptor binding assay, displacement of 3H-RO15-1788 [3H-Flumazenil] in rat cortical tissue; details: 0.5 nM 3H-RO15-1788 [3H-Flumazenil], 30 min at 4° C., pH 7.4
Protocol: The pharmaceutical utility of compounds of this invention are indicated by the following assay for GABAa receptor activity.
Assays are carried out as described in Thomas and Tallman (J. Bio. Chem. 156: 9838-9842, J. Neurosci. 3:433-440, 1983). Rat cortical tissue is dissected and homogenized in 25 volumes (w/v) of 0.05M Tris HCl buffer (pH 7.4 at 4° C.). The tissue homogenate is centrifuged in cold (4°) at 20,000×g for 20'. The supernatant is decanted and the pellet is rehomogenized in the same volume of buffer and again centrifuged at 20,000×g. The supernatant is decanted and the pellet is frozen at -20° C. overnight. The pellet is then thawed and rehomogenized in 25 volume (original wt/vol) of buffer and the procedure is carried out twice. The pellet is finally resuspended in 50 volumes (w/vol of 0.05M Tris HCl buffer (pH 7.4 at […]).
Incubations contain […] of radioligand 0.5 nM (^3 H-RO15-1788 [^3 H-Flumazenil] specific activity 80 Ci/mmol), drug or blocker and buffer to a total volume of […]. Incubations are carried for 30 min at 4° C. then are rapidly filtered through GFB filters to separate free and bound ligand. Filters are washed twice with fresh 0.05M Tris HCl buffer (pH 7.4 at 4° C.) and counted in a liquid scintillation counter. […] diazepam is added to some tubes to determine nonspecific binding. Data are collected in triplicate determinations, averaged and % inhibition of total specific binding is calculated. Total Specific Binding=Total-Nonspecific. In some cases, the amounts of unlabeled drugs is varied and total displacement curves of binding are carried out. Data are converted to a form for the calculation of IC50 and Hill Coefficient (nH).

SMILES: CN1CCc2cc3c(cc2[C@H]1[C@@H]1OC(=O)c2c1ccc1c2OCO1)OCO3 [(+) bicuculline]
- block of enhancement of benzodiazepine binding by GABA agonists [1]: blocked

SMILES: CN1CCc2cc3c(cc2[C@@H]1[C@H]1OC(=O)c2c1ccc1c2OCO1)OCO3 [(-) bicuculline]
- block of enhancement of benzodiazepine binding by GABA agonists [1]: much less active

SMILES: O=c1[nH]c2ccncc2c2nc(-c3ccccc3F)cn12 [Compound 1, 2-(2-Fluorophenyl)-imidazol[1,2-c]pyrido[3,4-e]pyrimidin-5(6H)-one]
- IC50 (GABAa receptor): 42 nM

SMILES: O=c1[nH]c2ccncc2c2nc(-c3ccccc3)cn12 [Compound 2, 2-Phenyl-imidazo[1,2-c]pyrido[3,4-e]pyrimidin-5(6H)-one]
- IC50 (GABAa receptor): 169 nM

SMILES: O=c1[nH]c2cccnc2c2nc(-c3ccccc3)cn12 [Compound 15, 2-Phenylimidazo[1,2-c]pyrido[2,3-e]pyrimidin-5(6H)-one]
- IC50 (GABAa receptor): 132 nM
